Drawing on patent US4001218A, “Penicillins” (Bayer Aktiengesellschaft, priority 1972, dated 1977), this text covers MIC and Surviving animals for six compounds.

Bounds are passed on as bounds.

For one assay, the system named is Klebsiella K 10. Briefly: MIC, test tube series dilution test, Klebsiella K 10. Format: cell-based. The settings on record: 24 hours, 37°C.
In a further assay the test system is E. coli A 261. Briefly: MIC, test tube series dilution test, E. coli A 261. Format: cell-based. The settings on record: 24 hours, 37°C.
Assay [1] deals with Klebsiella 63. As to the kind of experiment: MIC, test tube series dilution test, Klebsiella 63. Type of assay: cell-based. The settings on record: Klebsiella 63; 24 hours, 37°C.
In assay [2] the test system is Klebsiella 63. Briefly: animal experiment, Klebsiella 63 infection. The settings on record: s.c. 2 × 3000 Units per animal.
In a further assay the test system is E. coli 183/58. As to the kind of experiment: MIC, test tube series dilution test, E. coli 183/58. Type of assay: cell-based. The settings on record: 24 hours, 37°C.
A further assay deals with Psdm. aerug. Walter. As to the kind of experiment: MIC, test tube series dilution test, Psdm. aerug. Walter. Type of assay: cell-based, Pseudomonas aeruginosa. The settings on record: Psdm. aerug. Walter; 24 hours, 37°C.
A further assay has as its system Proteus vulg. 1017. Type of assay: cell-based, Proteus vulgaris. The settings on record: Proteus 1017; 24 hours, 37°C.
Assay [3] relates to Psdm. aerug. F 41. As to the kind of experiment: MIC, test tube series dilution test, Psdm. aerug. F 41. The settings on record: Psdm. aerug. F 41; 24 hours, 37°C. Format: cell-based, Pseudomonas aeruginosa.
The next assay deals with Staph. aureus 133. Format: cell-based, Staphylococcus aureus. The settings on record: Staph. aureus 133; 24 hours, 37°C.
In another assay the test system is Staph. aureus 1756. Briefly: MIC, test tube series dilution test, Staph. aureus 1756. Format: cell-based, Staphylococcus aureus. The settings on record: Staph. aureus 1756; 24 hours, 37°C.
For another assay, the system named is E. coli 14. Type of assay: cell-based. The settings on record: E. coli 14; 24 hours, 37°C.
A further assay has as its system E. coli C 165. Briefly: MIC, test tube series dilution test, E. coli C 165. Type of assay: cell-based. The settings on record: 24 hours, 37°C.
For another assay, the system named is Enterococcus 9790. As to the kind of experiment: MIC, test tube series dilution test, Enterococcus 9790. Format: cell-based. The settings on record: 24 hours, 37°C.
A further assay deals with Proteus morg. 932. As to the kind of experiment: MIC, test tube series dilution test, Proteus morg. 932. The settings on record: 24 hours, 37°C. Type of assay: cell-based.
For assay [4], the system named is Psdm. aerug. F 41. Briefly: animal experiment, Psdm. aerug. F 41 infection. The settings on record: s.c. 4 × 3000 Units per animal.
In a further assay the test system is Klebsiella 62. As to the kind of experiment: animal experiment, Klebsiella 62 infection. The settings on record: 1st day after infection; s.c. 2 × 3000 Units per animal; experiment with Ex.1.
The mark [5] stands for this setting: 1st day after infection, experiment with Ex.41.
Setting [6] is: 1st day after infection, experiment with Ex.29.
Where [7] appears, read: 2nd day after infection, experiment with Ex.29.
Setting [8] is: 3rd day after infection, experiment with Ex.29.
[9] abbreviates: 5th day after infection, experiment with Ex.29.
[10] abbreviates: 1st day after infection, experiment with Ex.7.
Setting [11] is: 1st day after infection, experiment with Ex.22.
Setting [12] is: 2nd day after infection, experiment with Ex.22.

As for `CC1(C)S[C@@H]2[C@H](NC(=O)[C@H](NC(=O)c3ccc(NC=O)cc3)c3ccccc3)C(=O)N2[C@H]1C(=O)O` [Example 41, Sodium D(-)-α -(4-formylamino-benzoylamino)-benzylpenicillin], the MIC in the assay on Klebsiella K 10 was 128 U/ml; against E. coli A 261 it was over 256 U/ml; against Klebsiella 63 [1], 128 U/ml; with E. coli 183/58, 64 U/ml; in the assay with Psdm. aerug. Walter, 64 U/ml; with Proteus vulg. 1017, 64 U/ml. Moreover, the MIC against Psdm. aerug. F 41 [3] was 32 U/ml; with Staph. aureus 133, under 1 U/ml; with Staph. aureus 1756 it was 32 U/ml; against E. coli 14 it was 8 U/ml; against E. coli C 165 it was 32 U/ml; in the assay on Enterococcus 9790, 8 U/ml. Further, the Surviving animals turned out to be 80% with Klebsiella 63 [2] (setting [5]); 50% in the assay with Klebsiella 63 [2] (2nd day after infection, experiment with Ex.41); 50% in the assay on Klebsiella 63 [2] (3rd day after infection, experiment with Ex.41); 50% in the assay on Klebsiella 63 [2] (5th day after infection, experiment with Ex.41).

As for `CC1(C)S[C@@H]2[C@H](NC(=O)[C@H](NC(=O)c3ccc(NC(=O)c4ccc(N)cc4)cc3)c3ccccc3)C(=O)N2[C@H]1C(=O)O` [Example 29, sodium D(-)-α-[4-(4-aminobenzoylamino)-benzoylamino] -benzylpenicillin], the MIC is over 256 U/ml in the assay with Proteus morg. 932; 128 U/ml against Klebsiella K 10; over 256 U/ml against E. coli A 261; 64 U/ml with Klebsiella 63 [1]; 16 U/ml in the assay with E. coli 183/58; 32 U/ml in the assay with Psdm. aerug. Walter. Besides, the MIC is listed as 256 U/ml against Proteus vulg. 1017; ~ 32 U/ml in the assay on Psdm. aerug. F 41 [3]; under 1 U/ml in the assay on Staph. aureus 133; 32 U/ml with Staph. aureus 1756; under 1 U/ml against E. coli 14; 4 U/ml in the assay on E. coli C 165. This compound had an MIC against Enterococcus 9790 of 4 U/ml. Further, the Surviving animals in the assay on Psdm. aerug. F 41 [4] (setting [6]) stood at 100%; in the assay on Psdm. aerug. F 41 [4] (setting [7]), 80%; in the assay on Psdm. aerug. F 41 [4] (setting [8]), 70%; in the assay on Psdm. aerug. F 41 [4] (setting [9]), 70%.

With `CC1(C)S[C@@H]2[C@H](NC(=O)[C@H](NC(=O)c3ccc(NC(=O)C4CCCC4)cc3)c3ccccc3)C(=O)N2[C@H]1C(=O)O` [Example 7, sodium D(-)-α-(4-cyclopentanecarbonylamino-benzoylamino)-benzylpenicillin], the MIC with Proteus morg. 932 is recorded as 256 U/ml; with Klebsiella K 10 it was 32 U/ml; in the assay on E. coli A 261 it was over 256 U/ml; against Klebsiella 63 [1] it was 32 U/ml; against E. coli 183/58, 8 U/ml; with Psdm. aerug. Walter, 32 U/ml. Also, the MIC is on record as 32 U/ml with Proteus vulg. 1017; 32 U/ml in the assay with Psdm. aerug. F 41 [3]; under 1 U/ml in the assay on Staph. aureus 133; 64 U/ml against Staph. aureus 1756; under 1 U/ml with E. coli 14; 8 U/ml with E. coli C 165. This compound also yielded an MIC with Enterococcus 9790 of 8 U/ml. Besides, the Surviving animals was 100% with Klebsiella 63 [2] (setting [10]); 100% in the assay on Klebsiella 63 [2] (2nd day after infection, experiment with Ex.7); 20% with Klebsiella 63 [2] (3rd day after infection, experiment with Ex.7).

As to `COc1cc(C(=O)Nc2ccc(C(=O)N[C@@H](C(=O)N[C@@H]3C(=O)N4[C@@H]3SC(C)(C)[C@@H]4C(=O)O)c3ccccc3)cc2)cc(OC)c1OC` [Example 22, Sodium D(-)-α-(4-[3,4,5-trimethoxybenzoylaminobenzoylamino])-benzylpenicillin], the figures for the MIC against E. coli A 261, in the assay with Proteus vulg. 1017 and in the assay with Staph. aureus 133 were over 256 U/ml, ~ 16 U/ml and under 1 U/ml, respectively. The Surviving animals with Psdm. aerug. F 41 [4] (setting [11]) is recorded as 80%; in the assay with Psdm. aerug. F 41 [4] (setting [12]), 80%; with Psdm. aerug. F 41 [4] (3rd day after infection, experiment with Ex.22), 80%.

Take `CC1(C)S[C@@H]2[C@H](NC(=O)C(C(=O)O)c3ccccc3)C(=O)N2[C@H]1C(=O)O` (some centres unmarked) [Carbenicillin, reference compound]: the Surviving animals turned out to be 0% with Klebsiella 62; 0% in the assay on Klebsiella 63 [2] (setting [5]); 0% in the assay on Klebsiella 63 [2] (setting [10]); 50% with Psdm. aerug. F 41 [4] (setting [11]); 80% in the assay with Psdm. aerug. F 41 [4] (setting [6]); 0% in the assay on Psdm. aerug. F 41 [4] (setting [12]). The Surviving animals in the assay on Psdm. aerug. F 41 [4] (setting [7]) is 30%; with Psdm. aerug. F 41 [4] (setting [8]), 30%; in the assay on Psdm. aerug. F 41 [4] (setting [9]), 20%.

As for `CC(N=[N+]=[N-])C(=O)Nc1ccc(C(=O)N[C@@H](C(=O)N[C@@H]2C(=O)N3[C@@H]2SC(C)(C)[C@@H]3C(=O)O)c2ccccc2)cc1` (some centres unmarked) [Example 37], the MIC in the assay with Proteus morg. 932 was ~ 128 U/ml; against Klebsiella K 10 it was 64 U/ml; against E. coli A 261, over 256 U/ml; in the assay with Klebsiella 63 [1], 32 U/ml; against E. coli 183/58 it was 16 U/ml; against Psdm. aerug. Walter it was 32 U/ml. In addition, the MIC is on record as 128 U/ml in the assay with Proteus vulg. 1017; ~ 32 U/ml in the assay with Psdm. aerug. F 41 [3]; under 1 U/ml with Staph. aureus 133; 64 U/ml in the assay with Staph. aureus 1756; 4 U/ml against E. coli 14; 8 U/ml in the assay with E. coli C 165. Besides, the MIC in the assay with Enterococcus 9790 is recorded as 16 U/ml.
